Data taken from patent US7547696B2, “Aminoquinoline derivatives and their use as adenosine A3 ligands” (sanofi-aventis, priority 2003, dated 2009).
Where a name gives a salt, the structure may show the parent alone.

Row | melting point [°C] | Compound
1 | 220 to 222 | COc1ccc(C(=O)Nc2nc3ccc(NS(=O)(=O)O)cc3c(NCc3ccccc3)c2C#N)cc1 (as salt: ammonium) [Example 11, {4-(Benzylamino)-3-cyano-2-[(4-methoxybenzoyl)amino]quinolin-6-yl}sulfamic acid]
2 | 228 to 230 | COc1ccc(C(=O)Nc2nc3ccc(N)cc3c(NCc3ccccc3)c2C#N)cc1 [Example 7, N-[6-amino-4-(benzylamino)-3-cyanoquinolin-2-yl]-4-methoxybenzamide]
3 | 237 to 240 | CNc1ccc2nc(NC(=O)c3ccc(OC)cc3)c(C#N)c(NCc3ccccc3)c2c1 [Example 9, N-{4-(benzylamino)-3-cyano-6-(methylamino)quinolin-2-yl}-4-methoxybenzamide]
4 | 223 to 226 | COc1ccc(C(=O)Nc2nc3ccc(NC=O)cc3c(NCc3cccs3)c2C#N)cc1 [Example 10, N-{3-Cyano-6-(formylamino)-4-[(2-thienylmethyl)amino]quinolin-2-yl]-4-methoxybenzamide]
